pKd: −log10 of the molar value. Where a SMILES comes first, the peptide text is derived from it. Where no end group is shown, it is not given here. [ ]: non-standard residue; d: D form.
Columns and labels:
[1] = Binding affinity (Kd) between peptide and LPS by isothermal titration calorimeter (ITC); conditions: for pKd: 0.2 mM peptide in cell, 2 mM LPS in syringe, PBS, read-out: Kd (calculated by ITC)
Description: FP1 is denoted as wild type (WT), and peptides having point mutations for various parts in WT were prepared (FP3, FP5, FP6, and FP9). To increase the interaction with LPS in the residue sequence of FP3, peptides were designed based on an FP3 and LPS-binding model (FP12-NH2 and FP13-NH2), and non-natural amino acid and amino acid isomers (allomeric D-type amino acids) were additionally introduced, thereby designing peptides (allD FP12-NH2, allD FP13-NH2, allD FP-13-9a, allD FP-13-9w, allD FP-13-9k, and allD FP13-NH2 (AcOH)). In addition, an N-terminal PEGylated peptide (PEG-allD FP13-NH2(AcOH)) was additionally designed and synthesized by Anygen Co. Ltd., and then supplied. Using each of the provided peptides, lipopolysaccharide (LPS), and an isothermal titration calorimeter (ITC) for measuring binding affinity (Kd), binding affinity with LPS was confirmed.
Specifically, a method of analyzing binding affinity (Kd) between a peptide and LPS is as follows.
The binding affinity was measured using Malvern MicroCal PEAQ-ITC cell equipment, and to confirm the interaction with LPS, pre-treatment was performed as follows. The volume and shape of a cell sample were 300 μL, coin-shaped, and fixed-in-place; and the syringe rotation rate was 1,200 rpm; and temperatures were 30° C., 35° C., and 25° C.
Before the test, LPS and the peptide were diluted with PBS in advance, thereby obtaining 2 mM LPS and a 0.2 mM peptide. 300 μL of the peptide was put into cells in an ITC device, which had been washed, and 40 μL of LPS was contained in a syringe. Measurement conditions for ITC (temperature, the number of injections) were set, the syringe was inserted into the cell, and the ITC measurement began. When the measurement was completed, the Kd values of LPS and the peptide were calculated through analysis.

[2] = LPS removal rates of reagents prepared with various peptides; conditions: for Removal Rate: peptide conjugated to CNBr-activated agarose
Description: To confirm an LPS removal rate by preparing a reagent for removing LPS using peptides other than FP12-NH2, LPS removal rates were compared using the peptides listed in Table 11.
Reagents for removing LPS were prepared in one dose by the method of Example 2-2 for each peptide.
More specifically, the reagent for removing LPS was aliquoted by Lot at 2 mL into 5 mL tubes. After centrifugation, the supernatant was removed with a syringe, 2 mL of PBS was added and mixed up and down and centrifuged. […] The mixture was stirred for 2 hours at room temperature. After centrifugation, the supernatant was transferred to a new tube.

Compound | LPS binding affinity compared with FP1 (wild type, WT) [1] | pKd [1] | Removal Rate ([2]; feeding LPS 100,000 EU/ml) [%] | Removal Rate ([2]; feeding LPS 10,000 EU/ml) [%] | LPS removal rate, comparison of all polypeptides ([2]; peptides of Table 11 conjugated to CNBr-activated agarose)
CC(C)C[C@@H](NC(=O)[C@H](N)CCCNC(=N)N)C(=O)N[C@H](CCCNC(=N)N)C(=O)N[C@@H](C(=O)N[C@H](CCCCN)C(=O)N[C@H](CC(C)C)C(=O)N[C@H](CCCNC(=N)N)C(=O)N[C@H](CCCNC(=N)N)C(=O)N[C@H](Cc1ccc(O)cc1)C(=O)N[C@H](CC(C)C)C(=O)N[C@H](CCCNC(=N)N)C(N)=O)C(C)C [allD FP12-NH2, RLRVKLRRYLR-NH2] (H-[dR][dL][dR][dV][dK][dL][dR][dR][dY][dL][dR]-NH2; N-terminus assumed) | the same as or higher than FP1 | 4.58 | 58.6 | – | –
LRLGVEAKRYLR [FP5, LRLGVEAKRYLR] | the same as or higher than FP1 | 3.07 | – | – | –
KLGVEALRYLD [FP9, KLGVEALRYLD] | the same as or higher than FP1 | 3.49 | – | – | –
KLGVEAKRYLD [FP1(WT), KLGVEAKRYLD, reference compound] | – | 3.62 | – | – | –
CC(C)C[C@@H](NC(=O)[C@H](N)CCCCN)C(=O)N[C@H](CCCNC(=N)N)C(=O)N[C@@H](C(=O)N[C@H](CCCCN)C(=O)N[C@H](CC(C)C)C(=O)N[C@H](CCCNC(=N)N)C(=O)N[C@H](CCCNC(=N)N)C(=O)N[C@H](Cc1ccc(O)cc1)C(=O)N[C@H](CC(C)C)C(=O)N[C@H](CCCNC(=N)N)C(N)=O)C(C)C [allD-FP-13-NH2 (AcOH), KLRVKLRRYLR-NH2] (H-[dK][dL][dR][dV][dK][dL][dR][dR][dY][dL][dR]-NH2; N-terminus assumed) | the same as or higher than FP1 | 4.71 | – | – | –
RLRVKLRRYLR-NH2 [FP12-NH2, RLRVKLRRYLR-NH2] | the same as or higher than FP1 | 6.62 | 79.4 | 99.9 | the highest removal rate
CC(C)C[C@@H](NC(=O)[C@H](N)CCCCN)C(=O)N[C@H](CCCNC(=N)N)C(=O)N[C@@H](C(=O)N[C@H](CCCCN)C(=O)N[C@H](CC(C)C)C(=O)N[C@H](CCCNC(=N)N)C(=O)N[C@H](CCCNC(=N)N)C(=O)N[C@H](Cc1ccc(O)cc1)C(=O)N[C@H](CC(C)C)C(=O)N[C@H](CCCNC(=N)N)C(N)=O)C(C)C [allD FP13-NH2, KLRVKLRRYLR-NH2] (H-[dK][dL][dR][dV][dK][dL][dR][dR][dY][dL][dR]-NH2; N-terminus assumed) | the same as or higher than FP1 | 5.32 | 57.7 | – | –
LRLGVELKRYLR [FP6, LRLGVELKRYLR] | the same as or higher than FP1 | 4.95 | – | – | –
CC(C)C[C@@H](NC(=O)[C@H](N)CCCCN)C(=O)N[C@H](CCCNC(=N)N)C(=O)N[C@@H](C(=O)N[C@H](CCCCN)C(=O)N[C@H](CC(C)C)C(=O)N[C@H](CCCNC(=N)N)C(=O)N[C@H](CCCNC(=N)N)C(=O)N[C@H](Cc1c[nH]c2ccccc12)C(=O)N[C@H](CC(C)C)C(=O)N[C@H](CCCNC(=N)N)C(N)=O)C(C)C [allD-FP-13-9w-NH2, Klrvklrrwlr-NH2] (H-[dK][dL][dR][dV][dK][dL][dR][dR][dW][dL][dR]-NH2; N-terminus assumed) | the same as or higher than FP1 | 4.76 | – | – | –
CC(C)C[C@@H](NC(=O)[C@H](N)CCCCN)C(=O)N[C@H](CCCNC(=N)N)C(=O)N[C@@H](C(=O)N[C@H](CCCCN)C(=O)N[C@H](CC(C)C)C(=O)N[C@H](CCCNC(=N)N)C(=O)N[C@H](CCCNC(=N)N)C(=O)N[C@H](CCCCN)C(=O)N[C@H](CC(C)C)C(=O)N[C@H](CCCNC(=N)N)C(N)=O)C(C)C [allD-FP-13-9k-NH2, Klrvklrrklr-NH2] (H-[dK][dL][dR][dV][dK][dL][dR][dR][dK][dL][dR]-NH2; N-terminus assumed) | the same as or higher than FP1 | 5.70 | – | – | –
KLGVEAKRYLR [FP3, KLGVEAKRYLR] | the same as or higher than FP1 | 3.48 | – | – | –
KLRVKLRRYLR-NH2 [FP13-NH2, KLRVKLRRYLR-NH2] | the same as or higher than FP1 | 3.93 | – | 94.8 | –

— patent US20230287048A1, “COMPOSITION AND KIT FOR REMOVING LIPOPOLYSACCHARIDE” (HLB SCIENCE INC., priority 2020, published 2023)
